In US9139532B2, “Pyrazolyl guanidine F1F0-atpase inhibitors and therapeutic uses thereof” (Lycera Corporation, priority 2010, dated 2015):
Where two headings read alike, the source gives them in different places.

How the values were obtained:
F1F0-ATPase = biological target: T1, F1F0-ATPase (Bos taurus, UniProt P13621); assay: Inhibition of F1F0-ATPase activity in synthesizing ATP; assay type: biochemical; conditions: inhibition of ATP synthesis by F1F0-ATPase; read-out: ATP Syn IC50
T1 construct: from tissue

Ramos cells = assay: Cytotoxicity in Ramos cells; assay type: cell-based; conditions: cytotoxicity in Ramos cells, read-out: Ramos Cell EC50

Structure (SMILES) | IC50 (F1F0-ATPase) [µM] | EC50 (Ramos cells) [µM] | EC50 (Ramos cells; Homo sapiens) [µM]
Cc1ccccc1CN/C(=N/C(=O)c1cc(F)c(F)c(F)c1)Nc1cc(-c2ccc(F)cc2)[nH]n1 [Compound A-397] | < 10 | < 10 | 
COc1cccc(CN/C(=N/C(=O)c2cccc(F)c2)Nc2cc(-c3ccc(F)cc3)[nH]n2)c1 [Compound A-398] | < 10 | < 10 | 
Cc1ccccc1CN/C(=N/C(=O)c1cccc(F)c1)Nc1cc(-c2ccc(F)cc2)[nH]n1 [Compound A-399] | < 10 | < 10 | 
COc1cccc(CNC(=NC(=O)c2ccc(Cl)cc2)Nc2cc(-c3ccc(F)cc3)n[nH]2)c1 [Compound A-400] | < 10 |  | < 10
Cc1ccccc1CNC(=NC(=O)c1ccc(Cl)cc1)Nc1cc(-c2ccc(F)cc2)n[nH]1 [Compound A-401] | < 10 |  | < 10
CCOc1cccc(C(=O)/N=C(\Nc2cc(-c3ccc(F)cc3)[nH]n2)NC(C)(C)C)c1 [Compound A-402] | < 10 | < 10 | 
CC(C)(C)NC(=NC(=O)c1cc(F)c(F)c(F)c1)Nc1cc(-c2ccc(F)cc2)n[nH]1 [Compound A-403] | < 10 |  | < 10
Cc1cc(C(=O)N=C(Nc2cc(C(F)(F)F)[nH]n2)NC(C)CO)ccc1F (stereo not drawn) [Compound A-404] | < 10 | > 10 | 
Cc1cc(C(=O)/N=C(\Nc2cc(-c3ccc(F)cc3)[nH]n2)N[C@@H](C)CO)ccc1F [Compound A-405] | < 10 | < 10 | 
O=C(/N=C(/NCC1CCOC1)Nc1cc(C(F)(F)F)[nH]n1)c1ccc(F)cc1 (stereo not drawn) [Compound A-406] | < 10 | > 10 | 
COCCCN/C(=N/C(=O)c1ccc(F)cc1)Nc1cc(C(F)(F)F)[nH]n1 [Compound A-409] | < 10 | > 10 | 
CCOCCN/C(=N/C(=O)c1ccc(F)cc1)Nc1cc(C(F)(F)F)[nH]n1 [Compound A-410] | < 10 | > 10 | 
O=C(/N=C(/NCc1nccs1)Nc1cc(C(F)(F)F)[nH]n1)c1ccc(F)cc1 [Compound A-411] | < 10 | > 10 | 
CC1(C)OCC(CN/C(=N/C(=O)c2ccc(F)cc2)Nc2cc(C(F)(F)F)[nH]n2)O1 (stereo not drawn) [Compound A-412] | < 10 | > 10 | 
O=C(/N=C(/NCC1CCCO1)Nc1cc(C(F)(F)F)[nH]n1)c1ccc(F)cc1 (stereo not drawn) [Compound A-413] | < 10 | > 10 | 
Cc1ccc(CN/C(=N/C(=O)c2ccc(F)cc2)Nc2cc(C(F)(F)F)[nH]n2)o1 [Compound A-414] | < 10 | < 10 | 
O=C(/N=C(\Nc1cc(C(F)(F)F)[nH]n1)NC1(CO)CCCC1)c1ccc(F)cc1 [Compound A-415] | < 10 | > 10 | 
Cc1csc(CN/C(=N/C(=O)c2ccc(F)cc2)Nc2cc(C(F)(F)F)[nH]n2)n1 [Compound A-416] | < 10 | > 10 | 
Cc1cc(-c2cc(N/C(=N\C(=O)c3ccc(C(F)(F)F)cc3)NC(C)(C)C)n[nH]2)ccc1F [Compound A-417] | < 10 | < 10 | 
Cc1cc(-c2cc(N/C(=N\C(=O)c3ccc(F)cc3)NC(C)(C)C)n[nH]2)ccc1F [Compound A-418] | < 10 | < 10 | 

Structure (SMILES) | IC50 (F1F0-ATPase) [µM] | EC50 (Ramos cells) [µM] | EC50 (Ramos cells; Homo sapiens) [µM]
O=C(N=C(Nc1cc(F)cc(Cl)c1)Nc1cc(-c2cc(F)cc(F)c2)[nH]n1)c1ccc(F)c(F)c1 [Compound A-419] | < 10 |  | < 10
CC(C)(C)N/C(=N/C(=O)c1ccc(F)c(F)c1)Nc1cc(-c2cc(F)cc(F)c2)[nH]n1 [Compound A-420] | < 10 | < 10 | 
O=C(/N=C(\Nc1cc(-c2cccc(C(F)(F)F)c2)[nH]n1)NC1CCCC1)c1ccc(C(F)(F)F)cc1 [Compound A-421] | < 10 | < 10 | 
O=C(N=C(Nc1cc(F)cc(Cl)c1)Nc1cc(-c2cccc(C(F)(F)F)c2)[nH]n1)c1ccc(F)c(F)c1 [Compound A-422] | < 10 |  | < 10
CC(C)(C)N/C(=N/C(=O)c1ccc(F)c(F)c1)Nc1cc(-c2cccc(C(F)(F)F)c2)[nH]n1 [Compound A-423] | < 10 | < 10 | 
COc1ccccc1CN/C(=N/C(=O)c1ccc(C(F)(F)F)cc1)Nc1cc(C(F)(F)F)[nH]n1 [Compound A-424] | < 10 | < 10 | 
COc1ccc(CN/C(=N/C(=O)c2ccccc2)Nc2cc(C(F)(F)F)[nH]n2)cc1 [Compound A-425] | < 10 | < 10 | 
Cc1ccc(-c2cc(NC(=NC(=O)c3ccc(C(F)(F)F)cc3)NC(C)(C)C)[nH]n2)cc1 [Compound A-426] | < 10 |  | > 10
Cc1ccc(-c2cc(N/C(=N\C(=O)c3ccc(F)c(F)c3)NC(C)(C)C)[nH]n2)cc1 [Compound A-427] | < 10 | < 10 | 
Cc1ccc(-c2cc(N/C(=N\C(=O)c3ccc(F)c(F)c3)Nc3cc(F)cc(Cl)c3)[nH]n2)cc1 [Compound A-428] | < 10 | > 10 | 
CC(C)CN/C(=N/C(=O)c1cccc(S(C)(=O)=O)c1)Nc1cc(-c2ccc(F)cc2)n[nH]1 [Compound A-429] | < 10 | < 10 | 
CCC(C)N/C(=N/C(=O)c1cccc(S(C)(=O)=O)c1)Nc1cc(-c2ccc(F)cc2)n[nH]1 (stereo not drawn) [Compound A-430] | < 10 | < 10 | 
CCc1ccc(-c2cc(N/C(=N\C(=O)c3ccc(F)c(F)c3)NC(C)(C)C)[nH]n2)cc1 [Compound A-431] | < 10 | < 10 | 
CCc1ccc(-c2cc(N/C(=N\C(=O)c3ccc(C(F)(F)F)cc3)NC(C)(C)C)[nH]n2)cc1 [Compound A-432] | < 10 | > 10 | 
Cc1ccc(-c2cc(N/C(=N\C(=O)c3ccc(F)c(F)c3)NC(C)(C)C)[nH]n2)cc1F [Compound A-433] | < 10 | < 10 | 
Cc1ccc(-c2cc(NC(=NC(=O)c3ccc(C(F)(F)F)cc3)NC(C)(C)C)[nH]n2)cc1F [Compound A-434] | < 10 |  | > 10
CC(C)(C)NC(=NC(=O)c1ccc(F)c(F)c1)Nc1cc(-c2ccccc2)n[nH]1 [Compound A-435] | < 10 |  | < 10
O=C(/N=C(/Nc1cc(F)cc(Cl)c1)Nc1cc(-c2ccccc2)n[nH]1)c1ccc(F)c(F)c1 [Compound A-436] | < 10 | > 10 | 
CC(C)(C)N/C(=N/C(=O)c1cccc(C(F)(F)F)c1)Nc1cc(-c2ccc(Cl)cc2)n[nH]1 [Compound A-437] | < 10 | < 10 | 
CC(C)(C)N/C(=N/C(=O)c1cccc(F)c1)Nc1cc(-c2cccc(Cl)c2)n[nH]1 [Compound A-438] | < 10 | < 10 | 

Structure (SMILES) | IC50 (F1F0-ATPase) [µM] | EC50 (Ramos cells) [µM] | EC50 (Ramos cells; Homo sapiens) [µM]
CC(C)(C)NC(=NC(=O)c1ccc(C(F)(F)F)cc1)Nc1cc(-c2cccc(Cl)c2)[nH]n1 [Compound A-439] | < 10 |  | < 10
O=C(N=C(NCc1ccc(F)cc1Cl)Nc1cc(-c2ccc(F)cc2)n[nH]1)c1ccc(F)c(F)c1 [Compound A-440] | < 10 |  | < 10
O=C(/N=C(/Nc1cc(F)cc(Cl)c1)Nc1cc(-c2ccc(F)cc2)n[nH]1)c1ccc(F)c(F)c1 [Compound A-441] | < 10 | < 10 | 
O=C(N=C(Nc1cc(F)cc(Cl)c1)Nc1cc(-c2cccc(Cl)c2)[nH]n1)c1ccc(F)c(F)c1 [Compound A-442] | < 10 |  | < 10
O=C(/N=C(/NCc1ccc(F)cc1Cl)Nc1cc(-c2ccc(F)cc2)n[nH]1)c1ccc(C(F)(F)F)cc1 [Compound A-443] | < 10 | < 10 | 
O=C(/N=C(/NCc1ccc(F)cc1Cl)Nc1cc(-c2cccc(Cl)c2)n[nH]1)c1ccc(C(F)(F)F)cc1 [Compound A-444] | < 10 | > 10 | 
O=C(/N=C(/NCc1ccc(F)cc1Cl)Nc1cc(-c2ccc(Cl)cc2)n[nH]1)c1ccc(C(F)(F)F)cc1 [Compound A-445] | < 10 | < 10 | 
O=C(N=C(Nc1cc(F)cc(Cl)c1)Nc1cc(-c2cccc(Cl)c2)[nH]n1)c1ccc(C(F)(F)F)cc1 [Compound A-446] | < 10 |  | > 10
O=C(/N=C(/Nc1cc(F)cc(Cl)c1)Nc1cc(-c2ccc(Cl)cc2)n[nH]1)c1ccc(C(F)(F)F)cc1 [Compound A-447] | < 10 | > 10 | 
CC(C)(C)NC(=NC(=O)c1cccc(C(F)(F)F)c1)Nc1cc(-c2ccc(F)cc2)n[nH]1 [Compound A-448] | < 10 |  | < 10
O=C(/N=C(/NCc1ccc(F)cc1Cl)Nc1cc(-c2ccc(F)cc2)n[nH]1)c1cccc(C(F)(F)F)c1 [Compound A-449] | < 10 | < 10 | 
O=C(N=C(Nc1cc(F)cc(Cl)c1)Nc1cc(-c2ccc(F)cc2)n[nH]1)c1cccc(C(F)(F)F)c1 [Compound A-450] | < 10 |  | < 10
CC(C)(C)N/C(=N/C(=O)c1cccc(Cl)c1)Nc1cc(-c2ccc(F)cc2)n[nH]1 [Compound A-451] | < 10 | < 10 | 
O=C(N=C(NCc1ccc(F)cc1Cl)Nc1cc(-c2ccc(F)cc2)n[nH]1)c1cccc(Cl)c1 [Compound A-452] | < 10 |  | < 10
CC(C)(C)N/C(=N/C(=O)c1ccc(Cl)cc1)Nc1cc(-c2ccc(F)cc2)n[nH]1 [Compound A-453] | < 10 | < 10 | 
O=C(/N=C(/NCc1ccc(F)cc1Cl)Nc1cc(-c2ccc(F)cc2)n[nH]1)c1ccc(Cl)cc1 [Compound A-454] | < 10 | < 10 | 
O=C(/N=C(/Nc1cc(F)cc(Cl)c1)Nc1cc(-c2ccc(F)cc2)n[nH]1)c1ccc(Cl)cc1 [Compound A-455] | < 10 | < 10 | 
CC(C)(C)N/C(=N/C(=O)c1cccc(F)c1)Nc1cc(-c2ccc(F)cc2)n[nH]1 [Compound A-456] | < 10 | < 10 | 
O=C(/N=C(/NCc1ccc(F)cc1Cl)Nc1cc(-c2ccc(F)cc2)n[nH]1)c1cccc(F)c1 [Compound A-457] | < 10 | < 10 | 
O=C(/N=C(/Nc1cc(F)cc(Cl)c1)Nc1cc(-c2ccc(F)cc2)n[nH]1)c1cccc(F)c1 [Compound A-458] | < 10 | < 10 | 
